Assay results from patent US7576093B2, “Method of treatment of bone-related disorders or conditions” (AstraZeneca AB, priority 2006, dated 2009).

Tests used:
Sprague Dawley rats [1] = assay: Trabecular bone mineral density of femur metaphysis by peripheral quantitative computed tomography after 14 days oral dosing; type: in vivo, rat; conditions: male Sprague Dawley rats, oral gavage 14 days, 3 μmol/kg twice daily or 30 μmol/kg once daily, every second or every fourth day; FIG. 5a-5c
Description: In a separate rat study, the effect of the compound 3-amino-6-[4-(4-methylpiperazin-1-yl)sulfonylphenyl]-N-pyridin-3-ylpyrazine-2-carboxamide on the bone mineral density (BMD) […]. The compound was formulated as a ultrapure solution in water (pH 3.5). The Male Sprague Dawley rats were dosed during 14 days by oral gavage. The study contained 4 dose groups with different dosing regimes and a vehicle control, namely 3 μmol/kg (twice daily) or 30 μmol/kg (once daily, once every second day or once every fourth day). Plasma samples were always taken 2 hrs after the oral dose was given in the morning. After 14 days, the rats were euthanized, and their right femurs were removed. The trabecular bone density of the femur metaphyses were measured utilizing peripheral quantitative computed Tomography method.

GSK3β = biological target: T1, GSK3β (Mus musculus, UniProt Q9WV60); conditions: glucocorticoid-treated osteoblasts in culture, GSK3β inhibited; cited from earlier work
T1 construct: host or cells: osteoblasts in culture (endogenous protein)
T1 sequence (Q9WV60 whole entry): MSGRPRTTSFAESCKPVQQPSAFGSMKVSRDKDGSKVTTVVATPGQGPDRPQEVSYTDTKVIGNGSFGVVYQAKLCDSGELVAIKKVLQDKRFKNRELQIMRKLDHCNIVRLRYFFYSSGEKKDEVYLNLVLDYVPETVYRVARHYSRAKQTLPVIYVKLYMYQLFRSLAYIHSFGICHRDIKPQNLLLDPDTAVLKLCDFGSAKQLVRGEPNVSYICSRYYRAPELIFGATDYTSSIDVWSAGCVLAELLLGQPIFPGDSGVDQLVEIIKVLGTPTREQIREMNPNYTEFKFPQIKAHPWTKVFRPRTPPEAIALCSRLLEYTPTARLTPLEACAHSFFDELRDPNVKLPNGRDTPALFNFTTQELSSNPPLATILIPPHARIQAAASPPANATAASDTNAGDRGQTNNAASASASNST

Sprague Dawley rats [2] = assay: Histopathology of bone in the 7-day rat study; type: in vivo; conditions: male Sprague Dawley rats, 30 μmol/kg/day orally for 7 days
Han Wistar rats = assay: Four-week oral rat study, light microscopy of bone sections (bone formation); type: in vivo
Description: The compound 3-amino-6-[4-(4-methylpiperazin-1-yl)sulfonylphenyl]-N-pyridin-3-ylpyrazine-2-carboxamide was formulated as a solution in water. Male and female Han Wistar rats were dosed by oral gavage, at dosages of 10, 30 or 60 μmol/kg/day for four weeks and compared to vehicle controls. Complete necropsies were performed and the tissues preserved in 10% formalin. The femur, femorotibial joint, sternum and hind paws were decalcified, embedded in paraffin, sectioned at 5 μm thickness and stained with hematoxylin and eosin.

calcitonin = assay: Calcitonin plasma levels in rats after 7 days oral dosing (ELISA); type: in vivo, rat; conditions: male Sprague Dawley rats, 30 μmol/kg/day orally for 7 days, 3 hours after last dose, vs vehicle
Description: (§1) In a separate rat study, the effect of the compound 3-amino-6-[4-(4-methylpiperazin-1-yl)sulfonylphenyl]-N-pyridin-3-ylpyrazine-2-carboxamide on osteocalcin levels, used as a marker for bone formation, was studied. Parathyroid hormone (PTH) and calcitonin levels were also analysed. The compound was formulated as a solution in water. Male Sprague Dawley rats were given 30 μmol/kg/day of the compound orally for 7 days and then compared to vehicle control rats. Blood samples were taken before the first drug administration at day 1, and 3 hours after the last dose at day 7. Osteocalcin plasma levels were measured using a commercial immunoassay (ELISA kit (catalogue # BT-490, Biomedical Technologies Inc. MA, USA)). Intact PTH levels were analyzed using a commercial ELISA kit (catalogue # 60-2700, Immutopics Inc. CA, USA). The calcitonin was measured in the following way, 200 μL plasma was precipitated with 1 mL acid ethanol, mixed vigorously and centrifuged for 15 min at 1500 g. The supernatant was decanted into a new tube and evaporated with a stream of nitrogen in a Turbo Vap. After reconstitution in assay buffer, calcitonin levels were analyzed using a commercial ELISA kit (catalogue # S-1197, Peninsula. Calif., USA).

osteocalcin = assay: Osteocalcin plasma levels in rats after 7 days oral dosing (ELISA); type: in vivo, rat; conditions: male Sprague Dawley rats, 30 μmol/kg/day orally for 7 days, 3 hours after last dose, vs vehicle
Description: as §1

[3] = tested on: Parathyroid hormone (PTH); assay: Intact PTH plasma levels in rats after 7 days oral dosing (ELISA); type: in vivo, rat; conditions: male Sprague Dawley rats, 30 μmol/kg/day orally for 7 days, 3 hours after last dose, vs vehicle
Description: as §1

[4] = rat, 60 μmol/kg for 4 weeks, vs vehicle-treated control

Nc1ncc(-c2ccc(S(=O)(=O)N3CCNCC3)cc2)nc1C(=O)Nc1cccnc1 [3-amino-6-(4-piperazin-1-ylsulfonylphenyl)-N-pyridin-3-ylpyrazine-2-carboxamide]
bone mineral density (BMD) in the trabeculae of the right femur metaphysis (Sprague Dawley rats [1]): BMD increases

[Cl-].[Li+] [lithium chloride]
attenuated cell cycle and reduced c-Myc level in osteoblasts (GSK3β): returned to normal

CN1CCN(S(=O)(=O)c2ccc(-c3cnc(N)c(C(=O)Nc4cccnc4)n3)cc2)CC1 [3-amino-6-[4-(4-methylpiperazin-1-yl)sulfonylphenyl]-N-pyridin-3-ylpyrazine-2-carboxamide]
bone formation, histopathologically (Sprague Dawley rats [2]): increased bone formation
bone mineral density (BMD) in the trabeculae of the right femur metaphysis (Sprague Dawley rats [1]): BMD increases
bone formation (thickened trabeculae, thickened cortical bone, periosteal hyperostosis, increased number of osteoblasts) by light microscopy (Han Wistar rats; male and female Han Wistar rats, oral gavage 10, 30 or 60 μmol/kg/day for four weeks, all dose levels, vs vehicle): increased bone formation
formation of osteoid in femur (diaphysis), FIG. 1b (Han Wistar rats; [4]): marked increase in formation of osteoid
formation of osteoid in femur (diaphysis), FIG. 1b (figure legend) (Han Wistar rats; [4]): marked increase in formation of osteoid
calcitonin plasma levels (calcitonin): significantly increased
Osteocalcin plasma levels (osteocalcin): significantly increased
PTH plasma levels [3]: significantly increased

Nc1ncc(-c2ccc(S(N)(=O)=O)cc2)nc1C(=O)Nc1cccnc1 [3-amino-N-pyridin-3-yl-6-(4-sulfamoylphenyl)pyrazine-2-carboxamide]
bone mineral density (BMD) in the trabeculae of the right femur metaphysis (Sprague Dawley rats [1]): BMD increases
